The results in this text go back to patent US9586986B2, “Substituted 7-deazapurine ribonucleosides for therapeutic uses” (Institute of Organic Chemistry and Biochemistry ASCR, v.v.i., priority 2014, dated 2017).

Structures are written as SMILES.

What all share (assay type): cell-based
One data set has as its system K562. As to the kind of experiment: Cytostatic/cytotoxic MTT assay, K562. The conditions noted are these: Homo sapiens, K562; 72 h incubation; read-out: MTT, IC50 K562. The source says: (§1) Unless otherwise stated, all cells were purchased from the […] (ATCC). The CCRF-CEM line is derived from T lymphoblastic leukemia, evincing high chemosenzitivity, K562 represent cells from a […] patient sample with bcr-abl translocation, HCT116 is colorectal tumor cell line and its p53 gene knock-down counterpart (HCT116p53−/−, Horizon Discovery, UK) is a model of human cancers with p53 inactivation frequently associated with poor prognosis, A549 cell line is lung adenocarcinoma. The daunorubicin resistant subline of CCRF-CEM cells (CEM-DNR bulk) and paclitaxel resistant subline K562-TAX were selected in our laboratory by cultivation of maternal cell lines in increasing concentrations of daunorubicine or paclitaxel, respectively. The CEM-DNR cells overexpress mrp-1 and mdr-1 genes, while K562-TAX cells overexpress mdr-1 only. Both proteins belong to the family of ABC transporters and are involved in the primary and/or acquired multidrug resistance phenomenon (ref.: Gottesman, M. M.; Fojo, T.; Bates, S. E. Multidrug resistance in cancer: role of ATP-dependent transporters. Nat. Rev. Cancer. 2002, 2, 48-58. (b) Noskova, V.; Dzubak, P.; Kuzmina, G.; Ludkova, A.; Stehlik, D.; Trojanec, R.; Janostakova, A.; Korinkova, G.; Mihal, V.; Hajduch, M. In vitro chemoresistance profile and expression/function of MDR associated proteins in resistant cell lines derived from CCRF-CEM, K562, A549 and MDA MB 231 parental cells. Neoplasma 2002, 49, 418-425). Non-malignant MRC-5 and BJ cells, derived from normal human fibroblasts, were used as controls. The cells were maintained in Nunc/Corning 80 cm^2 plastic tissue culture flasks and cultured in cell culture medium (DMEM/RPMI 1640 with 5 g/L glucose, 2 mM glutamine, 100 U/mL penicillin, 100 µg/mL streptomycin, 10% fetal calf serum, and NaHCO3). Cell suspensions were prepared and diluted according to the particular cell type and the expected target cell density (25,000-30,000 cells/well based on cell growth characteristics). Cells were added by pipette (80 L) into 96-well microtiter plates. Inoculates were allowed a pre-incubation period of 24 h at 37° C. and 5% CO2 for stabilization. Four-fold dilutions, in 20-L aliquots, of the intended test concentration were added to the microtiter plate walls at time zero. All test compound concentrations were examined in duplicate. Incubation of the cells with the test compounds lasted for 72 h at 37° C., in a 5% CO2 atmosphere at 100% humidity. At the end of the incubation period, the cells were assayed using MTT. Aliquots (10 L) of the MTT stock solution (5 mg/ml) were pipetted into each well and incubated for another 1-4 h. After this incubation period the formazan produced was dissolved by addition of 100 µL/well of 10% aq SDS (pH 5.5), followed by a further incubation at 37° C. overnight. The optical density was measured at 540 nm. The IC50 value, the drug concentration inhibiting the cell growth by 50%, was calculated from appropriate dose-response curves.
(§2) In vitro cytotoxic/cytostatic activity final nucleosides 1-5 was initially evaluated against […] cell lines derived from human solid tumors including lung (A549 cells) and colon (HCT116 and HCT116p53−/−) carcinomas, as well as leukemia cell lines (CCRF-CEM, CEM-DNR, K562 and K562-TAX) and, for comparison, non-malignant BJ and MRC-5 fibroblasts. Concentrations inhibiting the cell growth by 50% (IC50) were determined using a quantitative metabolic staining with 3-(4,5-dimethylthiazol-2-yl)-2,5-diphenyltetrazolium bromide (MTT) (ref.: Denizot, F.; Lang, R. Rapid colorimetric assay for cell growth and survival: Modifications to the tetrazolium dye procedure giving improved sensitivity and reliability. J. Immunol. Meth. 1986, 89, 271-277) following a 3-day treatment.
(Formazan colour is commonly taken as a measure of viable cells.)

The subject of a further data set is K562-TAX. Put plainly: Cytostatic/cytotoxic MTT assay, K562-TAX. The conditions noted are these: Homo sapiens, paclitaxel resistant subline, 72 h, read-out: MTT, IC50 K562-TAX.
Excerpt: as §1, §2
(§3) Multidrug resistance is a major therapeutic problem in cancer chemotherapy. […]

A further data set has as its system A549. As to the kind of experiment: Cytostatic/cytotoxic MTT assay, A549. The conditions noted are these: Homo sapiens, A549; 72 h incubation; read-out: MTT, IC50 A549.
Excerpt: as §1, §2

The subject of the next data set is HCT116p53-/-. As to the kind of experiment: Cytostatic/cytotoxic MTT assay, HCT116p53-/-. Conditions: Homo sapiens, HCT-116; 72 h incubation; read-out: MTT, IC50 HCT116 p53-/-.
Excerpt: as §1, §2, §3

The test system of another data set is MRC-5. Put plainly: Cytostatic/cytotoxic MTT assay, MRC-5 fibroblasts. Conditions: Homo sapiens, MRC5; non-malignant fibroblasts, 72 h; read-out: MTT, IC50 MRC-5.
Excerpt: as §1, §2

In data set [1] the test system is Huh-7 cells harboring replicon 1B. As to the kind of experiment: Cytotoxicity in replicon 1B cells. Conditions: HCV subtype 1B replicon. As for the experimental part: (§4) Compounds were also tested in Huh-7 cells harboring sub-genomic reporter replicons derived from HCV subtypes 1B and 2A (ref.: Stuyver, L. J.; Whitaker, T.; McBrayer, T. R.; Hernandez-Santiago, B. I.; Lostia, S.; Tharnish, P. M.; Ramesh, M.; Chu, C. K.; Jordan, R.; Shi, J. X.; Rachakonda, S.; Watanabe, K. A.; Otto, M. J.; Schinazi, R. F. Antimicrob. Agents Chemother. 2003, 47, 244-254).

Data set [2] deals with Huh-7 cells harboring replicon 2A. Put plainly: Cytotoxicity in replicon 2A cells. The conditions noted are these: HCV subtype 2A replicon. As for the experimental part: as §4
Background: A replicon is a self-replicating genome or part of one, used to study replication in cells.

In general, CC50 refers to the concentration that lowers cell viability or growth by half. A low value points to greater toxicity to the cells. Take `COc1ncnc2c1c(-c1ccco1)cn2[C@@H]1O[C@H](CO)[C@@H](O)[C@H]1O` [Compound 1a, 5-(Furan-2-yl)-4-methoxy-7-(β-D-ribofuranosyl)-7H-pyrrolo[2,3-d]pyrimidine]: the IC50 in the data set with K562 is 0.06 µM; in the data set on K562-TAX it was 0.38 µM; in the data set with A549 it was 0.03 µM; in the data set on HCT116p53-/- it was 0.04 µM; in the data set with MRC-5 it was 1.7 µM. Also, the CC50 in data set [1] and in data set [2] was greater than 44 µM in each case.
For `COc1ncnc2c1c(-c1ccoc1)cn2[C@@H]1O[C@H](CO)[C@@H](O)[C@H]1O` [Compound 1b, 5-(Furan-3-yl)-4-methoxy-7-(β-D-ribofuranosyl)-7H-pyrrolo[2,3-d]pyrimidine], the IC50 in the data set with K562 is 0.19 µM; in the data set with K562-TAX, 2.82 µM; in the data set with A549, 1.16 µM; in the data set with HCT116p53-/-, 0.13 µM; with MRC-5 it was 29.4 µM. In addition, the CC50 in data set [1] and in data set [2] was greater than 44 µM in each case.
Regarding `COc1ncnc2c1c(-c1cccs1)cn2[C@@H]1O[C@H](CO)[C@@H](O)[C@H]1O` [Compound 1c, 4-Methoxy-7-(β-D-ribofuranosyl)-5-(thiophen-2-yl)-7H-pyrrolo[2,3-d]pyrimidine], the IC50 was determined as 0.07 µM in the data set with K562; 6.2 µM with K562-TAX; 4.85 µM in the data set on A549; 0.44 µM in the data set on HCT116p53-/-; 43.2 µM in the data set on MRC-5. Besides, the CC50 in data set [1] and in data set [2] was greater than 44 µM each time.
With `COc1ncnc2c1c(-c1ccsc1)cn2[C@@H]1O[C@H](CO)[C@@H](O)[C@H]1O` [Compound 1d, 4-Methoxy-7-(β-D-ribofuranosyl)-5-(thiophen-3-yl)-7H-pyrrolo[2,3-d]pyrimidine], the IC50 is 0.09 µM with K562; 3.45 µM in the data set with K562-TAX; 5.17 µM in the data set on A549; 0.14 µM in the data set on HCT116p53-/-; 75.3 µM in the data set with MRC-5. In addition, the CC50 in data set [1] and in data set [2] was greater than 44 µM throughout.
For the compound `COc1ncnc2c1c(-c1ccccc1)cn2[C@@H]1O[C@H](CO)[C@@H](O)[C@H]1O` [Compound 1e, 4-Methoxy-5-phenyl-7-(β-D-ribofuranosyl)-7H-pyrrolo[2,3-d]pyrimidine], the IC50 was greater than 20 µM with K562; greater than 20 µM in the data set with K562-TAX; greater than 20 µM with A549; greater than 20 µM in the data set on HCT116p53-/-; greater than 100 µM in the data set on MRC-5. Further, the cytotoxic concentration (CC50) in data set [1] and in data set [2] was greater than 44 µM in each case.
`COc1ncnc2c1c(-c1cc3ccccc3o1)cn2[C@@H]1O[C@H](CO)[C@@H](O)[C@H]1O` [Compound 1f, 5-(Benzofuran-2-yl)-4-methoxy-7-(β-D-ribofuranosyl)-7H-pyrrolo[2,3-d]pyrimidine]: the IC50 in the data set with K562 was found to be 20.9 µM; in the data set on K562-TAX it was 13.1 µM; with A549 it was 17.7 µM; with HCT116p53-/- it was 14.5 µM; in the data set with MRC-5, 65.6 µM. The CC50 in data set [1] and in data set [2] was greater than 44 µM throughout.
In the case of `C#Cc1cn([C@@H]2O[C@H](CO)[C@@H](O)[C@H]2O)c2ncnc(OC)c12` [Compound 1g, 5-Ethynyl-4-methoxy-7-(β-D-ribofuranosyl)-7H-pyrrolo[2,3-d]pyrimidine], the IC50 in the data set on K562 is 0.3 µM; with K562-TAX, 0.38 µM; in the data set on A549 it was 8.16 µM; with HCT116p53-/- it was 5.14 µM; in the data set with MRC-5, greater than 100 µM. Also, the CC50 in data set [1] and in data set [2] was greater than 44 µM each time.
In the case of `COc1ncnc2c1c(I)cn2[C@@H]1O[C@H](CO)[C@@H](O)[C@H]1O` [Compound 1h, 5-iodo-4-methoxy-7-(β-D-ribofuranosyl)-7H-pyrrolo[2,3-d]pyrimidine, reference compound], the IC50 in the data set with K562 was greater than 20 µM; with K562-TAX it was 14.8 µM; in the data set on A549, greater than 20 µM; with HCT116p53-/-, greater than 20 µM; with MRC-5, 63 µM. For the same compound, the CC50 in data set [1] and in data set [2] was greater than 44 µM each time.
